Columns and labels:
Experiment in all cases: Cell proliferation WST-1 assay, single dose (Example 4)
Assay type in all cases: cell-based
Details in all cases: 100 μM, 48 hours
A375 melanoma cells = tested on: A375 melanoma cells
Protocol: (§1) In addition, compounds were tested in RPMI-7951 cells, which also contain mutated BRaf and are resistant to BRaf inhibitors due to the overexpression of MAP3K8 (the gene encoding COT/Tp12) that provides an alternative mechanism to indirectly or directly activate ERK proteins. […] For comparison, HeLa cervical carcinoma and Jurkat T-cell leukemia cells, which are p53 defective cancer cell lines but contain no known activating mutations in the ERK pathway, were studied. […] Cell proliferation was evaluated by water soluble tetrazolium-1 (WST-1) assay as previously described. Briefly, cells (˜5000/well) were seeded in 96 well plates, allowed to recover for 16-20 hours, and then treated with the indicated test compound for 48 hours. After incubation, WST-1 reagent was added and absorbance was read at 450 nm with background subtraction taken at 650 nm. Values were normalized to the control (DMSO only treated) cells.

HL-60 leukemic cells = tested on: HL-60 leukemic cells
Protocol: as §1

[1] = tested on: HeLa cervical carcinoma cells
Protocol: as §1

[2] = tested on: Jurkat T-cell leukemia cells
Protocol: as §1

RPMI-7951 melanoma cells = tested on: RPMI-7951 melanoma cells
Protocol: as §1

SK-MEL-28 melanoma cells = tested on: SK-MEL-28 melanoma cells
Protocol: as §1

| Structure (SMILES) | Cell Viability (% of Vehicle) A375 (A375 melanoma cells) | Cell Viability (% of Vehicle) HL-60 (HL-60 leukemic cells) | Cell Viability (% of Vehicle) HeLa [1] | Cell Viability (% of Vehicle) Jurkat [2] | Cell Viability (% of Vehicle) RPMI-7951 (RPMI-7951 melanoma cells) | Cell Viability (% of Vehicle) SK-MEL-28 (SK-MEL-28 melanoma cells) |
| --- | --- | --- | --- | --- | --- | --- |
| CCOc1ccc(/C=C2\SC(=O)N(CCNC(=O)OC(C)(C)C)C2=O)cc1 [Compound 26b, (Z)-tert-butyl (2-(5-(4-ethoxybenzylidene)-2,4-dioxothiazolidin-3-yl)ethyl)carbamate] | 88 ± 3 % of Vehicle | 95 ± 21 % of Vehicle | 88 ± 5 % of Vehicle | 111 ± 9 % of Vehicle | 67 ± 4 % of Vehicle | 83 ± 5 % of Vehicle |
| CCOc1ccc(/C=C2\SC(=O)N(CCNS(C)(=O)=O)C2=O)cc1 [Compound 27a, (Z)—N-(2-(5-(4-ethoxybenzylidene)-2,4-dioxothiazolidin-3-yl)ethyl)methanesulfonamide] | 94 ± 2 % of Vehicle | 82 ± 44 % of Vehicle | 82 ± 1 % of Vehicle | 85 ± 3 % of Vehicle | 68 ± 3 % of Vehicle | 87 ± 2 % of Vehicle |
| NCCN1C(=O)S/C(=C\c2ccccc2)C1=O [Compound 30a, (Z)-3-(2-aminoethyl)-5-benzylidenethiazolidine-2,4-dione] | 82 ± 9 % of Vehicle | 28 ± 20 % of Vehicle | 82 ± 10 % of Vehicle | 88 ± 4 % of Vehicle | 89 ± 17 % of Vehicle | 88 ± 7 % of Vehicle |
| CCOc1ccc(/C=C2\SC(=O)N(CCNCc3ccccc3)C2=O)cc1 [Compound 23d, (Z)-3-(2-(benzylamino)ethyl)-5-(4-ethoxybenzylidene)thiazolidine-2,4-dione] | 13 ± 1 % of Vehicle | 5.0 ± 2 % of Vehicle | 37 ± 1 % of Vehicle | 89 ± 4 % of Vehicle | 2.5 ± 0.3 % of Vehicle | 25 ± 6 % of Vehicle |
| CCOc1ccc(/C=C2\SC(=O)N(CC(=O)O)C2=O)cc1 [Compound 28h, (Z)-2-(5-(4-ethoxybenzylidene)-2,4-dioxothiazolidin-3-yl)acetic acid] | 122 ± 6 % of Vehicle | 97 ± 27 % of Vehicle | 104 ± 3 % of Vehicle | 108 ± 3 % of Vehicle | 133 ± 9 % of Vehicle | 106 ± 1 % of Vehicle |
| CCOc1ccc(/C=C2\SC(=O)N(CCNCc3ccc(C#N)cc3)C2=O)cc1 [Compound 23e, (Z)-4-(((2-(5-(4-ethoxybenzylidene)-2,4-dioxothiazolidin-3-yl)ethyl)amino)methyl)benzonitrile] | 89 ± 3 % of Vehicle | 75 ± 25 % of Vehicle | 88 ± 2 % of Vehicle | 98 ± 5 % of Vehicle | 96 ± 5 % of Vehicle | 96 ± 6 % of Vehicle |
| NCCN1C(=O)S/C(=C\c2ccccc2O)C1=O [Compound 30i, (Z)-3-(2-aminoethyl)-5-(2-hydroxybenzylidene)thiazolidine-2,4-dione] | 78 ± 3 % of Vehicle | 24 ± 8 % of Vehicle | 68 ± 3 % of Vehicle | 99 ± 5 % of Vehicle | 102 ± 10 % of Vehicle | 85 ± 9 % of Vehicle |
| CCNCCN1C(=O)S/C(=C\c2ccc(OCC)cc2)C1=O [Compound 23b, (Z)-5-(4-ethoxybenzylidene)-3-(2-(ethylamino)ethyl)thiazolidine-2,4-dione] | 51 ± 4 % of Vehicle | 14 ± 4 % of Vehicle | 81 ± 2 % of Vehicle | 69 ± 10 % of Vehicle | 60 ± 4 % of Vehicle | 63 ± 10 % of Vehicle |
